Experimental data published in PubChem BioAssay AID2060896 (Molecular Pharmacology Branch, DTP, NCI, 2025).

System: 941728-121-R-J1-PDC complex spheroid viability
Test: Anticancer human tumor 941728-121-R-J1-PDC patient-derived lung adenocarcinoma cell line growth inhibition [RAS]
Conditions: for IC50: curve of first compound; for viability, T/C: stronger effect = lower value
Description: RAS pathway inhibitors in Combinations in Complex Spheroids
A high-throughput screen of multi-cell type tumor spheroids was designed to identify active combinations of RAS pathway inhibitors and targeted small molecules. Complex spheroids include a stromal component modeled by human endothelial cells (HUVEC) and fibroblasts modeled by human mesenchymal stem cells (MSCs). The concentration ranges selected for each drug and investigational agent were based upon clinically achievable concentrations if the clinical Cmax of the agent was known.
Compounds. The drugs and investigational agents: abemaciclib (NSC768073), cobimetinib (NSC768068), divarasib (GDC6063, NSC841802), docetaxel (NSC628503), GDC-1971 (RLY-1971, NSC841576), gemcitabine (NSC613327), inavolisib (NSC800729), ipatasertib (NSC767898), KB-0742 (NSC834161), MRTX-1133 (NSC836407), osimertinib (NSC779217), RMC-4630 (NSC839698), RMC-6236 (NSC851965), RMC-6291 (NSC852671), Ro-3306 (NSC812927), sapanisertib (NSC764658), SN-38 (NSC673596), staurosporine (NSC755774), SY5609 (NSC837396), and tovorafenib (DAY101, NSC766906), were obtained from the National Cancer Institute (NCI) Developmental Therapeutics Program Chemical Repository. The FDA-approved anticancer drug set is available from the NCI Developmental Therapeutics Program. […] The stock solutions were prepared in dimethyl sulfoxide (DMSO, Sigma-Aldrich, St. Louis, MO, cat. D2650) at 800-fold the tested concentration and stored at -70 degrees C prior to their use. All drugs and investigational agents were tested over a range starting from a high concentration at or near the clinical Cmax and decreasing in half-log increments. If the clinical Cmax for an agent had not been determined, the highest concentration tested was 10 microM.
Cell Culture. All cells were maintained in an incubator at 37 degrees C and 5% CO2 with 95% humidity. The PDC lines were cultured according to standard operating procedures established by the NCI PDMR. All PDCs were thawed and cultured in Matrigel-coated flasks prepared with a working solution of 1X Ham's F-12 nutrient mix, without supplementation (Invitrogen, Waltham, MA, cat. 11765054), 100 U/mL penicillin-streptomycin (Invitrogen, cat. 15140122), and 2.5% Matrigel (Corning Inc., Corning, NY, cat. 354248) for the first three passages. The 362531-283-R-J2-PDC and 782815-120-R-J1-PDC lines were cultured in 6C/Colon 1B media, which includes advanced DMEM/F-12 (Thermo Fisher Scientific, cat. 12634028), 10 mM HEPES (Thermo Fisher Scientific, cat. 15630080), 1X GlutaMAX supplement (Thermo Fisher Scientific, cat. 35050061), 0.1 mg/mL primocin (InvivoGen, San Diego, CA, cat. ant-pm-2), 10% defined fetal bovine serum, heat inactivated (HyClone Laboratories Inc., Logan, UT, cat. SH30070.03HI), 50% L-WRN conditioned media (ATCC, cat. CRL-3276), 1.25 mM N-Acetyl-L-cysteine (Sigma-Aldrich, cat. A9165), 10 mM nicotinamide (Sigma-Aldrich, cat. N0636), 1X B-27 supplement (Thermo Fisher Scientific, cat. 17504044), 1X N-2 supplement (Thermo Fisher Scientific, cat. 17502048), 50 ng/mL human EGF (Thermo Fisher Scientific, cat. PHG0311), and 10 microM Y-27632 dihydrochloride (Tocris Bioscience, cat. 1254). The K12877-001-R-J1-PDC line was cultured in 6I media, which includes all 6C/Colon 1B media plus 10 ng/mL human FGF-10 (PeproTech, cat. 100-26), 1 ng/mL human FGF-2 (PeproTech, cat. 100-18B), 1 µM prostaglandin E2 (Tocris Bioscience, cat. 2296), […] hydrocortisone (Sigma-Aldrich, cat. H4001), and […] bovine insulin (Sigma-Aldrich, cat. I6634). The K86415-001-R-J1-PDC line was cultured in 6D media, which includes all 6C/Colon 1B media components minus the L-WRN conditioned media. The 485176-168-R4-J1-PDC was cultured in PANC media, which includes all 6C/Colon 1B media plus 100 ng/mL human FGF-10 (PeproTech, cat. 100-26), 500 nM SB-431542 (Selleckchem, cat. S1067), and 10 nM gastrin (Tocris Bioscience, cat. 3006). […]
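Further: spheroids exposed to compounds for 7 days before readout.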
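Wherever viability, T/C is given: 100% = DMSO vehicle control viability.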

With `C[C@@H](NC(=O)c1ncnc(N)c1Cl)c1ncc(C(=O)Nc2cc(C(F)(F)F)c(Cl)cn2)s1` + C#Cc1c(F)ccc2cc(O)cc(-c3ncc4c(N5CC6CCC(C5)N6)nc(OCC56CCCN5CC(F)C6)nc4c3F)c12 the IC50 (second compound 0.0316 µM) was 7000 nM, the IC50 (second compound 0.1 µM) was 7100 nM and the IC50 (second compound 0.316 µM) was 2680 nM. The IC50 (second compound 1 µM) was < 31.6 nM, the IC50 (second compound 3.16 µM) was < 31.6 nM and the IC50 (second compound 10 µM) was < 31.6 nM. It also gave a viability, T/C (second compound 0.0316 µM, first compound 0.0316 µM) of 107%, a viability, T/C (second compound 0.0316 µM, first compound 0.1 µM) of 102% and a viability, T/C (second compound 0.0316 µM, first compound 0.316 µM) of 108%. It also gave a viability, T/C (second compound 0.0316 µM, first compound 1 µM) of 94.4%, a viability, T/C (second compound 0.0316 µM, first compound 3.16 µM) of 72.5% and a viability, T/C (second compound 0.0316 µM, first compound 10 µM) of 40%. For the same molecule, the viability, T/C (second compound 0.1 µM, first compound 0.0316 µM) was 102%, the viability, T/C (second compound 0.1 µM, first compound 0.1 µM) was 109% and the viability, T/C (second compound 0.1 µM, first compound 0.316 µM) was 103%. It also gave a viability, T/C (second compound 0.1 µM, first compound 1 µM) of 102%, a viability, T/C (second compound 0.1 µM, first compound 3.16 µM) of 76.3% and a viability, T/C (second compound 0.1 µM, first compound 10 µM) of 38.9%. It also gave a viability, T/C (second compound 0.316 µM, first compound 0.0316 µM) of 69.7%, a viability, T/C (second compound 0.316 µM, first compound 0.1 µM) of 79.6% and a viability, T/C (second compound 0.316 µM, first compound 0.316 µM) of 69.6%. The viability, T/C (second compound 0.316 µM, first compound 1 µM) was 60.2%, the viability, T/C (second compound 0.316 µM, first compound 3.16 µM) was 49.2% and the viability, T/C (second compound 0.316 µM, first compound 10 µM) was 37.1%. It also gave a viability, T/C (second compound 1 µM, first compound 0.0316 µM) of 46.2%, a viability, T/C (second compound 1 µM, first compound 0.1 µM) of 48.5% and a viability, T/C (second compound 1 µM, first compound 0.316 µM) of 45.3%. It also gave a viability, T/C (second compound 1 µM, first compound 1 µM) of 39.4%, a viability, T/C (second compound 1 µM, first compound 3.16 µM) of 38.4% and a viability, T/C (second compound 1 µM, first compound 10 µM) of 29.4%. It also gave a viability, T/C (second compound 3.16 µM, first compound 0.0316 µM) of 30%, a viability, T/C (second compound 3.16 µM, first compound 0.1 µM) of 32.5% and a viability, T/C (second compound 3.16 µM, first compound 0.316 µM) of 28.2%. It also gave a viability, T/C (second compound 3.16 µM, first compound 1 µM) of 26.5%, a viability, T/C (second compound 3.16 µM, first compound 3.16 µM) of 30.2% and a viability, T/C (second compound 3.16 µM, first compound 10 µM) of 28.1%. For the same molecule, the viability, T/C (second compound 10 µM, first compound 0.0316 µM) was 24.4%, the viability, T/C (second compound 10 µM, first compound 0.1 µM) was 25.2% and the viability, T/C (second compound 10 µM, first compound 0.316 µM) was 25.3%. The viability, T/C (second compound 10 µM, first compound 1 µM) was 26.2%, the viability, T/C (second compound 10 µM, first compound 3.16 µM) was 25% and the viability, T/C (second compound 10 µM, first compound 10 µM) was 21.7%.

For `C[C@@H](NC(=O)c1ncnc(N)c1Cl)c1ncc(C(=O)Nc2cc(C(F)(F)F)c(Cl)cn2)s1` + CCn1c(-c2cc(N3CCN(C)CC3)cnc2C(C)OC)c2c3cc(ccc31)-c1csc(n1)CC(NC(=O)C1CC1C)C(=O)N1CCCC(N1)C(=O)OCC(C)(C)C2, the IC50 (second compound 0.000949 µM) was < 31.6 nM, the IC50 (second compound 0.003 µM) was < 31.6 nM and the IC50 (second compound 0.00949 µM) was < 31.6 nM. The IC50 (second compound 0.03 µM) was < 31.6 nM, the IC50 (second compound 0.0949 µM) was < 31.6 nM and the IC50 (second compound 0.3 µM) was < 31.6 nM. For the same molecule, the viability, T/C (second compound 0.000949 µM, first compound 0.0316 µM) was 28.7%, the viability, T/C (second compound 0.000949 µM, first compound 0.1 µM) was 30.9% and the viability, T/C (second compound 0.000949 µM, first compound 0.316 µM) was 22.4%. The viability, T/C (second compound 0.000949 µM, first compound 1 µM) was 34%, the viability, T/C (second compound 0.000949 µM, first compound 3.16 µM) was 33.6% and the viability, T/C (second compound 0.000949 µM, first compound 10 µM) was 24.5%. It also gave a viability, T/C (second compound 0.003 µM, first compound 0.0316 µM) of 27.8%, a viability, T/C (second compound 0.003 µM, first compound 0.1 µM) of 24.4% and a viability, T/C (second compound 0.003 µM, first compound 0.316 µM) of 22.4%. The viability, T/C (second compound 0.003 µM, first compound 1 µM) was 24.9%, the viability, T/C (second compound 0.003 µM, first compound 3.16 µM) was 27.9% and the viability, T/C (second compound 0.003 µM, first compound 10 µM) was 20%. For the same molecule, the viability, T/C (second compound 0.00949 µM, first compound 0.0316 µM) was 19.1%, the viability, T/C (second compound 0.00949 µM, first compound 0.1 µM) was 15.5% and the viability, T/C (second compound 0.00949 µM, first compound 0.316 µM) was 21.6%. The viability, T/C (second compound 0.00949 µM, first compound 1 µM) was 21.9%, the viability, T/C (second compound 0.00949 µM, first compound 3.16 µM) was 19.7% and the viability, T/C (second compound 0.00949 µM, first compound 10 µM) was 17.9%. It also gave a viability, T/C (second compound 0.03 µM, first compound 0.0316 µM) of 14.1%, a viability, T/C (second compound 0.03 µM, first compound 0.1 µM) of 16.5% and a viability, T/C (second compound 0.03 µM, first compound 0.316 µM) of 17.1%. For the same molecule, the viability, T/C (second compound 0.03 µM, first compound 1 µM) was 15.4%, the viability, T/C (second compound 0.03 µM, first compound 3.16 µM) was 15.4% and the viability, T/C (second compound 0.03 µM, first compound 10 µM) was 14.9%. It also gave a viability, T/C (second compound 0.0949 µM, first compound 0.0316 µM) of 13.6%, a viability, T/C (second compound 0.0949 µM, first compound 0.1 µM) of 15.7% and a viability, T/C (second compound 0.0949 µM, first compound 0.316 µM) of 14.3%. The viability, T/C (second compound 0.0949 µM, first compound 1 µM) was 14.3%, the viability, T/C (second compound 0.0949 µM, first compound 3.16 µM) was 11.7% and the viability, T/C (second compound 0.0949 µM, first compound 10 µM) was 13.6%. It also gave a viability, T/C (second compound 0.3 µM, first compound 0.0316 µM) of 13.8%, a viability, T/C (second compound 0.3 µM, first compound 0.1 µM) of 13.7% and a viability, T/C (second compound 0.3 µM, first compound 0.316 µM) of 15.6%. It also gave a viability, T/C (second compound 0.3 µM, first compound 1 µM) of 13.8%, a viability, T/C (second compound 0.3 µM, first compound 3.16 µM) of 12.3% and a viability, T/C (second compound 0.3 µM, first compound 10 µM) of 11.9%.
